Measured values published in patent US9913858B2, “Prevention and treatment of toxicosis” (priority 2013, dated 2018).
Like-named read-outs stand apart in the source and are kept apart here. Marks after values point to notes of the source that are not given here.

Tests used:
[1] = system: lolitrem B toxicosis (Rye Grass Staggers); experiment: Clinical and neurological signs in sheep fed lolitrem B-containing toxic feed with or without potassium bromide; format: in vivo
Description: Animals were exposed to a controlled diet containing 0.16 mg/kg body weight (BW) lolitrem B toxin rising to 0.27 mg/kg BW after 21 days exposure to toxic feed. Toxin was delivered as perennial rye grass seed (GA66 AR98, Grasslanz Technology Ltd, NZ) containing very high levels of lolitrem B toxin (11 ppm DM) as a component of the animal's feed intake.
On entry to the trial, all animals receiving toxic feed were exposed to a diet containing experimental ryegrass seed with a final lolitrem B concentration of 0.08 mg/kg LW, lucerne chaff and molasses 30% w/v for 3 days. After this induction period, the toxin content of the feed was increased to 0.16 mg/kg LW for the duration of the trial. […] Ryegrass seed constituted up to 65% of available Feed on Offer (FOO) by dry weight contributing a metabolisable energy of 12.1 Mj/kg DM.
At entry to the trial, all animals were subjected to a full clinical examination. Live weight was recorded. Venous blood and urine samples were collected for laboratory. Animals were also subjected to gait analysis, neurological examination including proprioceptive testing, cranial nerve examination and papillary light and menace reflexes. Electromyography (EMG) of tricep and neck muscles was performed. Gait analysis (see below) was repeated at three day intervals until onset of significant clinical signs and/or gait abnormality at which point animals were subjected to gait analysis daily. Gait analysis was recorded on video each occasion.
General clinical signs were also noted on a daily basis; these included observations of nervousness or agitation, changes in normal placement of body, limb or head position changes in faecal consistency, feeding behaviour or water consumption, observeable tremor of the body or head, eye position (strabismus) and movement (nystagmus), locomotory disturbances, or any other clinical changes worthy of note. Feed and water intake was monitored daily for the duration of the trial. Heart rate, respiration rate at rest and rectal temperature were also monitored daily.
Prophylactic sheep received a split loading dose of 300 mg/kg on day 1, 120 mg/kg (100 mg LD+20 mg/kg daily maintenance dose) on day 2, 120 mg/kg on day 3 and 20 mg/kg daily for the duration of the trial. An acute treatment dose of 300 mg/kg LW was used for the trial. Both prophylactic and acute treatment doses were envisaged to give serum concentrations of 750 to 1000 μg/ml for the duration of the initial weeks of the trial.
Group 1—Negative Control: lucerne chaff only;
Group 2—Positive Control: lucerne chaff containing 0.16 mg/kg LW lolitrem B;
Prophylactic treatment sheep (Groups 4 & 5) received a split loading dose of 300 mg/kg on day 1 of the trial, 120 mg/kg (100 mg LD 20 mg/kg daily maintenance dose) on day 2, 120 mg/kg on day 3 and 20 mg/kg daily thereafter. Acute therapy sheep were dosed with a single dose of 300 mg/kg on day of falling.
End of the trial was defined for Groups 2 and 3 as date of falling. Group 1 animals entered the end of trial protocol with their Group 2 counterparts. Group 4 and 5 animals entered the end of trial protocol after 22 days. This end of trial protocol consisted of the following analysis: • On Day 1: animals were subjected to a full clinical examination, gait analysis, urine and blood collection, neurological examination and EMG. • On Day 2: further gait analysis was recorded, • On Day 3: animals were again subjected to full clinical examination, gait analysis, urine and blood collection, neurological examination and EMG as well as live weight recorded prior to necropsy.

[2] = system: cerebellum; format: in vivo; conditions: sheep cerebellum
Description: A full clinical examination was performed prior to euthanasia. At euthanasia, 100 I.U. heparin (Provet Riverina Pty Ltd) was injected into the jugular vein, followed shortly by Lethabarb (20 mL/40 kg LW). Immediately after euthanasia, the ventral articulation of C1 was exposed and cerebrospinal fluid (CSF) collected using a 23 g needle. The head was then removed and subjected to perfusion fixation. Briefly, the carotid arteries were exposed and a small catheter inserted and ligated to secure the perfusion lines. Two liters of 0.1% phosphate buffered saline (PBS) containing 3000 I.U of heparin/L was then slowly perfused via the ligated vessels at a pressure of 90 mm Hg using a Microgon peristaltic Pump (Microgon, Laguna Hills, Calif.). Once complete this was replaced with 4% paraformaldehyde (Sigma-Alrich) in 0.1% PBS and a further two liters allowed to perfuse slowly through the tissues of the head. Once complete, catheters were removed and the whole head placed at 4° C. overnight to complete fixation. Twenty-four hours post perfusion fixation the brain was removed from the skull and placed in 10% formal saline for storage until dissection for processing to wax sections.
Concurrent to fixation perfusion of the head, a routine ovine necropsy was performed and all general tissues taken for routine histopathology. These were heart, lung, oesophagus and trachea, liver, spleen, gut (rumen, abomasum, ileocaecal junction, ileum, caecum and colon), skeletal muscle (gluteal, tricep and diaphram), kidney, pancreas, thymus, ileal and cranial lymph nodes as well as tissues from any gross abnormalities observed at time post necropsy. Other samples: subcutaneous fat, renal fat, gluteal muscle, kidney, faeces and rumen contents were collected and stored at −80° C. for future toxicological analysis. Samples for routine histopathology were fixed in 10% formal saline for a minimum of 48 hours before processing to wax using an automated wax embedder (Shandon Excelsior ES Tissue Processor, Thermo Fisher Scientific).
For histopathology, sections of brain and spinal cord included the following regions: mid cerebellar peduncle; mid and lateral sections of cerebellum; obex, occipital cortex; rostral colliculi; basal ganglia; frontal cortex; temporal cortex; thalamus; hippocampus; internal capsule; cervical, thoracic and lumbar spinal cord and pituitary. Other tissues examined for routine histopathology were kidney; lung; ileum; heart; liver including, gall bladder and bile duct; diaphragm; rumen; and colon. All sections were cut at 5 μm and stained with Haematoxylin and Eosin (H&E) using an automated staining system (Shandon Varistain Gemini ES Slide Stainer, Thermo Fisher Scientific).

[3] = sheep, Group 2: toxic feed (lolitrem B 0.16 mg/kg LW), no treatment
[4] = sheep, Group 3: toxic feed plus single oral 300 mg/kg KBr on day of falling
[5] = sheep, Group 4: toxic feed plus prophylactic oral KBr (300, 120, 120 then 20 mg/kg daily), 22 days
[6] = sheep, Group 5: prophylactic oral KBr only, no toxic feed, 22 days
[7] = Group 3: toxin plus acute treatment
[8] = Group 4: toxin plus prophylactic treatment
[9] = Group 5: prophylactic treatment only

CC(C)=C[C@H]1O[C@H]2[C@H]3O[C@@]34[C@H](CC[C@@]3(C)[C@@]4(O)CC[C@H]4Cc5c([nH]c6ccc7c(c56)C[C@@H]5[C@@H](C7=O)C(C)(C)OC5(C)C)[C@@]43C)O[C@@H]2C(C)(C)O1 [lolitrem B]
time from Type 1 to Type 2 gait changes ([1]; intoxicated sheep): approximately 9 days | Menace reflex ([1]; lolitrem B intoxicated sheep): either lost or reduced | pupillary light reflex ([1]; lolitrem B intoxicated sheep): normal | Ventral strabismus, animals affected ([1]; sheep, Group 2 (toxin only)): 9/9 | Altered stance, mean number of days to onset (+/−s.e.m.) [1, 3]: 11.78(+/−2.58) days | Altered stance, number of animals affected [1, 3]: 9/9 | Fine tremor, mean number of days to onset (+/−s.e.m.) [1, 3]: 8.22(+/−2.58) days | Fine tremor, number of animals affected [1, 3]: 9/9 | First clinical signs, mean number of days to onset (+/−s.e.m.) [1, 3]: 7.56(+/−2.06) days | First clinical signs, number of animals affected [1, 3]: 9/9 | Major body clonus, mean number of days to onset (+/−s.e.m.) [1, 3]: 17.33(+/−3.51) days | Major body clonus, number of animals affected [1, 3]: 3/9 | Ventral strabismus, animals affected ([1]; sheep, Group 3 (toxin, acute KBr on day of falling)): 7/9 | Ventral strabismus, animals affected ([1]; sheep, Group 4 (toxin plus prophylactic KBr)): 6 | Incidence of Purkinje neuron vacuolation ([2]; Group 2: toxin only): 5/9 | Incidence of pyknotic cell bodies in granular layer ([2]; Group 2: toxin only): 9/9 | Incidence of spheroids, granular layer ([2]; Group 2: toxin only): 7/9 | Incidence of spheroids, molecular layer ([2]; Group 2: toxin only): 1/9

[Br-].[K+] [potassium bromide]
Altered stance, mean number of days to onset (+/−s.e.m.) [1, 4]: 10.22(+/−2.10) days | Altered stance, number of animals affected [1, 4]: 9/9 | Fine tremor, mean number of days to onset (+/−s.e.m.) [1, 4]: 12.43(+/−4.82) days | Fine tremor, number of animals affected [1, 4]: 7/9 | First clinical signs, mean number of days to onset (+/−s.e.m.) [1, 4]: 8.56(+/−1.94) days | First clinical signs, number of animals affected [1, 4]: 9/9 | Major body clonus, mean number of days to onset (+/−s.e.m.) [1, 4]: 11.67(+/−2.88) days | Major body clonus, number of animals affected [1, 4]: 3/9 | animals showing evidence of mild anxiolysis ([1]; sheep, Group 4: toxic feed plus prophylactic oral KBr): ^aIncludes 4/9 animals showing evidence of mild anxiolysis | Altered stance, mean number of days to onset (+/−s.e.m.) [1, 5]: 8.33(+/−1.22) days | Altered stance, number of animals affected [1, 5]: 9/9 | Fine tremor, mean number of days to onset (+/−s.e.m.) [1, 5]: 12.14(+/−4.45) days | Fine tremor, number of animals affected [1, 5]: 7/9 | First clinical signs, mean number of days to onset (+/−s.e.m.) [1, 5]: 6.33(+/−1.73) days | First clinical signs, number of animals affected [1, 5]: 9/9^a | Major body clonus, mean number of days to onset (+/−s.e.m.) [1, 5]: 10.67(+/−2.65) days | Major body clonus, number of animals affected [1, 5]: 5/9 | altered stance reported earlier than in toxin-only counterparts ([1]; sheep, Group 4 versus Groups 2 and 3): approximately two | animals showing evidence of mild anxiolysis ([1]; sheep, Group 5: prophylactic oral KBr only): ^bIncludes 5/9 animals showing evidence of mild anxiolysis | Altered stance, mean number of days to onset (+/−s.e.m.) [1, 6]: 11.0(+/−4.69) days | Altered stance, number of animals affected [1, 6]: 4/9 | Fine tremor, mean number of days to onset (+/−s.e.m.) [1, 6]: 11.00(+/−0.0) days | Fine tremor, number of animals affected [1, 6]: 1/9 | First clinical signs, mean number of days to onset (+/−s.e.m.) [1, 6]: 10.75(+/−4.46) days | First clinical signs, number of animals affected [1, 6]: 8/9^b | Major body clonus, mean number of days to onset (+/−s.e.m.) [1, 6]: 0 days | Major body clonus, number of animals affected [1, 6]: 0/9 | range of onset of mild mood changes ([1]; sheep, potassium bromide at the prophylactic dose): 4 to 17 days | Incidence of Purkinje neuron vacuolation [2, 7]: 2/9 | Incidence of pyknotic cell bodies in granular layer [2, 7]: 5/9 | Incidence of spheroids, granular layer [2, 7]: 7/9 | Incidence of spheroids, molecular layer [2, 7]: 0/9 | Incidence of Purkinje neuron vacuolation [2, 8]: 1/9 | Incidence of pyknotic cell bodies in granular layer [2, 8]: 9/9 | Incidence of spheroids, granular layer [2, 8]: 6/9 | Incidence of spheroids, molecular layer [2, 8]: 3/9 | Incidence of Purkinje neuron vacuolation [2, 9]: 0/9 | Incidence of pyknotic cell bodies in granular layer [2, 9]: 2/9 | Incidence of spheroids, granular layer [2, 9]: 1/9 | Incidence of spheroids, molecular layer [2, 9]: 3/9
